Values of other authors, collected in patent US9738932B2, “Biomarkers for cardiovascular side-effects induced by cox-2 inhibitory compounds” (FIRALIS SAS, priority 2005, dated 2017).

System: CXCL10 synthesis
Details: by preventing PGE2 production and PKA activation; cited from earlier work

## CS(=O)(=O)Nc1ccc([N+](=O)[O-])cc1OC1CCCCC1 [NS398]
  effect on CXCL10 synthesis upon INFγ stimulation: potentiates
